Values joined by “and” are separate entries in the source; they are usually repeats but may differ in a detail not shown here. Equal values may be shown once. Read-outs that look alike come from different tables or passages of the source.
Experiments:
U87MG cells = test: cells; conditions: for cytotoxicity at 0.1 µM: read-out: % Toxicity U87MG, 0.1 μM, 72 h, MTT, n = 3
Procedure: (§1) HEK293, U87MG, and HL-60 cell lines were seeded in a flat-bottom 96-well plate at a density of 10,000 cells per well. […] All compounds were incubated at 0.1 μM in 200 μL of culture medium supplemented with 10% FBS, in a flat-bottom 96-well plate at a density of 10,000 cells per well, at 37 °C for 72 h. Next, 20 μL of a 5 mg/mL MTT solution was added, and the cells were incubated at 37 °C for 4 h. Then, they were solubilized with 10% sodium dodecyl sulfate (SDS) in 0.1 mM HCl and incubated overnight at 37 °C. Formazan absorbance of each well was measured using the EPOCH microplate reader (Biotek, Winooski, VT, USA) at a wavelength of 570 nm. […]
(§2) promyelocytic leukemia cells (HL-60) were maintained at 5% CO2 and 37 °C in DMEM, EMEM and RPMI medium, respectively containing 10% Fetal Bovine Serum and 100 U/mL penicillin and 100 […]
(§3) Cell viability: ([MTT - (3-(4,5-dimethylthiazol-2-yl)-2,5-diphenyltetrazolium bromide) - formazan] HEK293, U87MG, and HL-60 cells were first quantified to determine the exact number to be used in […]
(§4) with the Beer-Lambert(1).
(§5) HEK293, U87MG and HL-60 cell lines were seed in a flat-bottom 96-wells plate at a density of 10,000 […]
(§6) concentrations (0.001 μM to 10 μM) in 200 μL of respective culture medium supplemented with 10% fetal bovine serum (FBS), at 37 °C for 72 hours. Subsequently, 20 μL of 5 mg/mL MTT solution was added to each well, and cells were incubated at 37 °C for 4 h. The resulting formazan crystals were then solubilized with 10% sodium dodecyl sulfate (SDS) in 0.1 mM HCl, followed by overnight incubation at 37 °C. Untreated cells were used as the control, 0.1% of dimethyl sulfoxide (DMSO) as the vehicle control, and 0.2 % of Triton X-100 as a positive control for cell death. IC 50 toxicity values […]
(§7) same conditions described in the previous paragraph. […]
(§8) determined IC50. The stimulation with both CB ligands was performed simultaneously.
(§9) All compounds were incubated at 0.1 μM in 200 μL of culture medium supplemented with 10% FBS, in a flat-bottom 96-well plate at a density of 10,000 cells per well, at 37°C for 72 hours. Next, 20 μL of a 5 mg/mL MTT solution was added, and the cells were incubated at 37°C for 4 hours. Then, they were solubilized with 10% sodium dodecyl sulfate (SDS) in 0.1 mM HCl and incubated overnight at 37°C. Formazan absorbance of each well was measured using the EPOCH microplate reader (Biotek, USA) at a wavelength of 570 nm.
(§10) [1]Mosorov, V., The Lambert-Beer law in time domain form and its application.

[1] = molecular target: T1, human cannabinoid CB1 receptor (Homo sapiens, UniProt P21554); test: biochemical; assay type: binding; conditions: for inhibition at 10 µM: displacement of [3H]CP-55940 at 10 μM compound, read-out: CB1 Max Tested µM (% Displacement)
T1 construct: purchased Perkin Elmer Inc., Singapore Pte; Ltd. RBHCB1M400UA; host or cells: HEK293-EBNA cell membranes (overexpressing)

[2] = molecular target: T2, human recombinant cannabinoid CB2 receptor (Homo sapiens, UniProt P34972); test: CB2 radioligand displacement binding assay ([3H]CP-55940); conditions: for Ki: Cheng–Prusoff from IC50, [3H]CP-55940 0.5 nM; for Ki / IC50: mean ± SEM n = 3; for IC50: [3H]CP-55940 0.5 nM, hCB2 HEK293-EBNA membranes; for inhibition at 10 µM: displacement of [3H]CP-55940 at 10 μM compound, read-out: CB2 Max Tested µM (% Displacement)
T2 construct: purchased Perkin Elmer Inc., Singapore Pte; Ltd. RBXCB2M400UA; host or cells: HEK293-EBNA cell membranes (overexpressing)

HEK293 cells = test: cells; conditions: for % Toxicity HEK293T: 0.1 μM, 72 h, MTT, n = 3; for cytotoxicity at 0.1 µM: Homo sapiens, HEK293, 72 h, read-out: % Toxicity HEK293T, 0.1 μM, 72 h, MTT, n = 3
Procedure: as §1, §2, §3, §4, §5, §6, §7, §8, §9, §10

HL-60 cells = test: cells; conditions: for % Toxicity HL-60: 0.1 μM, 72 h, MTT, n = 3
Procedure: as §1, §2, §3, §4, §5, §6, §7, §8, §9, §10

[3] = Cheng–Prusoff from IC50, [3H]CP-55940 0.5 nM, mean ± SEM n = 3, read-out: CB1 Ki
[4] = [3H]CP-55940 0.5 nM, hCB1 HEK293-EBNA membranes, mean ± SEM n = 3, read-out: CB1 IC50

T2 sequence (P34972 whole entry): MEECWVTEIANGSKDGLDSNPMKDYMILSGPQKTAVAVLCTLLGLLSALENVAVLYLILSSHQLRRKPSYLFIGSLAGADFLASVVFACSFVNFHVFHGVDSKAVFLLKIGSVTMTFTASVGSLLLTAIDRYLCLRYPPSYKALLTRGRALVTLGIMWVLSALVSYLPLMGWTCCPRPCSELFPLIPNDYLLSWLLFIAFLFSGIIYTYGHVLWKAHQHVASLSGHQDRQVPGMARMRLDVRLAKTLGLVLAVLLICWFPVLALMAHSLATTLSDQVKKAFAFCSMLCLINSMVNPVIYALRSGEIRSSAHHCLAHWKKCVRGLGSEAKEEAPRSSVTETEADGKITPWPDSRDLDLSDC
T1 sequence (P21554 whole entry): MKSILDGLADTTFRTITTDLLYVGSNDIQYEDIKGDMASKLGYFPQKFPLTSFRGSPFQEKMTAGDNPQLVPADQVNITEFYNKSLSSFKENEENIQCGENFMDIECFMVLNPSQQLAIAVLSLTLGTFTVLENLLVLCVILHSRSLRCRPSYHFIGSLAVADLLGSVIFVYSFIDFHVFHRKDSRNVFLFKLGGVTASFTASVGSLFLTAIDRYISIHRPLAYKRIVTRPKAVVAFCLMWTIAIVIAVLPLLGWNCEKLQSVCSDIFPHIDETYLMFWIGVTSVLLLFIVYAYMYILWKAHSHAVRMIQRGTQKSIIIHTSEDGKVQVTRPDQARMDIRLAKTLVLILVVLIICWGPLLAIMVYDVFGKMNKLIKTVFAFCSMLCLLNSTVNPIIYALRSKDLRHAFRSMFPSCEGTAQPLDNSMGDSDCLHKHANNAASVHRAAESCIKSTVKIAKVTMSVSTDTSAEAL

| Structure (SMILES) | IC50 U87MG cells as printed in the figure picture (U87MG cells; MTT dose–response curve, unit not given) | Ki [1, 3] | IC50 [1, 4] | inhibition at 10 µM [1] | Ki [2] | IC50 [2] | inhibition at 10 µM [2] | % Toxicity HEK293T (HEK293 cells) | cytotoxicity at 0.1 µM (HEK293 cells) | % Toxicity U87MG (U87MG cells; 0.1 μM, 72 h, MTT, n = 3) | cytotoxicity at 0.1 µM (U87MG cells; Homo sapiens, U-87 MG, 72 h) | IC50 [1] | Ki ([1]; CB1 Ki) | % Toxicity HL-60 (HL-60 cells) | cytotoxicity at 0.1 µM (HL-60 cells; Homo sapiens, HL-60, 72 h, read-out: % Toxicity HL-60) | IC50 (U87MG cells; Homo sapiens, U-87 MG, 72 h, read-out: IC50 toxicity U87MG, MTT, 72 h) |
| --- | --- | --- | --- | --- | --- | --- | --- | --- | --- | --- | --- | --- | --- | --- | --- | --- |
| O=C(c1cccc2ccccc12)n1c(-c2ccco2)nc2cc(F)ccc21 [Compound 5f, (5-fluoro-2-(furan-2-yl)-1H-benzo[d]imidazol-1-yl)(naphthalen-1-yl)methanone] | 8.963 x 10^-8 | ~1.48 µM and 1.48 µM | 6.03 ± 4.09 µM | > 55% | > 10 µM | > 10 µM | 54.5% |  |  |  |  |  |  |  |  |  |
| COc1cccc(-c2nc3cc(Cl)ccc3n2C(=O)c2cccc3ccccc23)c1 [Compound 4b] |  | > 10 µM | > 10 µM | 39% | > 10 µM | > 10 µM | 48% |  |  |  |  |  |  |  |  |  |
| Cc1cc(-c2nc3ccc(F)cc3n2C(=O)c2cccc3ccccc23)no1 [5c′, (6-fluoro-2-(5-methylisoxazol-3-yl)-1H-benzo[d]imidazol-1-yl)(naphthalen-1-yl)methanone] |  | > 10 µM | > 10 µM | 37% | > 10 µM | > 10 µM | 29% |  |  |  |  |  |  |  |  |  |
| O=C(c1cccc2ccccc12)n1c(-c2ccon2)nc2cc(Cl)ccc21 [Compound 4d] |  | ~1.86 µM and 1.86 µM | 7.58 ± 4.21 µM | > 55% | > 10 µM | > 10 µM | 15% | 10 ± 9% | 10% | 50 ± 14% | 50% |  |  |  |  |  |
| O=C(c1cccc2ccccc12)n1c(-c2cccnc2)nc2ccc(F)cc21 [5a′, (6-fluoro-2-(pyridin-3-yl)-1H-benzo[d]imidazol-1-yl)(naphthalen-1-yl)methanone] |  | > 10 µM | > 10 µM | 9.5% | > 10 µM | > 10 µM | 16% |  |  |  |  |  |  |  |  |  |
| O=C(c1cccc2ccccc12)n1c(-c2ccon2)nc2cc(F)ccc21 [Compound 5d, (5-fluoro-2-(isoxazol-3-yl)-1H-benzo[d]imidazol-1-yl)(naphthalen-1-yl)methanone] |  | > 10 µM | > 10 µM | 54% | > 10 µM | > 10 µM | 51% |  |  |  |  |  |  |  |  |  |
| Cc1ccc(-c2nc3cc(Cl)ccc3n2C(=O)c2cccc3ccccc23)o1 [Compound 4e] |  | > 10 µM | > 10 µM | 30% | > 10 µM | > 10 µM | 29% |  |  |  |  |  |  |  |  |  |
| O=C(c1cccc2ccccc12)n1c(-c2cccnc2)nc2ccc(Cl)cc21 [4a′] |  | > 10 µM | > 10 µM | 20% |  |  | 52% |  |  |  |  |  |  |  |  |  |
| O=C(c1cccc2ccccc12)n1c(-c2ccon2)nc2ccc(F)cc21 [5d′, (6-fluoro-2-(isoxazol-3-yl)-1H-benzo[d]imidazol-1-yl)(naphthalen-1-yl)methanone] |  | > 10 µM | > 10 µM | 34% | > 10 µM | > 10 µM | 26% |  |  |  |  |  |  |  |  |  |
| Cc1cc(-c2nc3ccc(Cl)cc3n2C(=O)c2cccc3ccccc23)no1 [4c′] |  | > 10 µM | > 10 µM | 44% | > 10 µM | > 10 µM | 29% |  |  |  |  |  |  |  |  |  |
| Cc1cc(-c2nc3cc(F)ccc3n2C(=O)c2cccc3ccccc23)no1 [Compound 5c, (5-fluoro-2-(5-methylisoxazol-3-yl)-1H-benzo[d]imidazol-1-yl)(naphthalen-1-yl)methanone] |  | > 10 µM | > 10 µM | 54.5% | > 10 µM | > 10 µM | 24% |  |  |  |  |  |  |  |  |  |
| O=C(c1cccc2ccccc12)n1c(-c2ccon2)nc2ccc(Cl)cc21 [4d′] |  |  |  | 47% | > 10 µM | > 10 µM | 42% |  |  |  |  | > 10 µM | > 10 µM |  |  |  |
| O=C(c1cccc2ccccc12)n1c(-c2ccco2)nc2cc(Cl)ccc21 [Compound 4f] |  | > 10 µM | > 10 µM | > 50% | > 10 µM | > 10 µM | 46.5% |  |  |  |  |  |  |  |  |  |
| O=C(c1cccc2ccccc12)n1c(-c2ccco2)nc2ccc(Cl)cc21 [Compound 4f′] |  | > 10 µM | > 10 µM | 47.5% | > 10 µM | > 10 µM | 53.2% | 50 ± 23% | 50% |  |  |  |  | 10 ± 19% | 10% |  |
| O=C(c1cccc2ccccc12)n1c(-c2cccnc2)nc2cc(F)ccc21 [Compound 5a] |  | > 10 µM | > 10 µM | 41% | > 10 µM | > 10 µM | 43% |  |  |  |  |  |  |  |  |  |
| Cc1cc(-c2nc3cc(Cl)ccc3n2C(=O)c2cccc3ccccc23)no1 [Compound 4c] |  | > 10 µM | > 10 µM | 38% | > 10 µM | > 10 µM | 30% |  |  |  |  |  |  |  |  |  |
| Cc1ccc(-c2nc3ccc(F)cc3n2C(=O)c2cccc3ccccc23)o1 [5e′, (6-fluoro-2-(5-methylfuran-2-yl)-1H-benzo[d]imidazol-1-yl)(naphthalen-1-yl)methanone] |  | > 10 µM | > 10 µM | 43% | > 10 µM | > 10 µM | 52% |  |  |  |  |  |  |  |  |  |
| O=C(c1cccc2ccccc12)n1c(-c2cccnc2)nc2cc(Cl)ccc21 [Compound 4a] |  | > 10 µM | > 10 µM | 36% | 6.6 µM |  | 35% |  |  |  |  |  |  |  |  |  |
| COc1cccc(-c2nc3ccc(F)cc3n2C(=O)c2cccc3ccccc23)c1 [5b′, (6-fluoro-2-(3-methoxyphenyl)-1H-benzo[d]imidazol-1-yl)(naphthalen-1-yl)methanone] |  | > 10 µM | > 10 µM | 47% | > 10 µM | > 10 µM | 53.5% |  |  |  |  |  |  |  |  |  |
| Cc1ccc(-c2nc3ccc(Cl)cc3n2C(=O)c2cccc3ccccc23)o1 [4e′] |  | > 10 µM | > 10 µM | 38% | > 10 µM | > 10 µM | 52.8% |  |  |  |  |  |  |  |  |  |
| O=C(c1cccc2ccccc12)n1c(-c2ccco2)nc2ccc(F)cc21 [Compound 5f′, (6-fluoro-2-(furan-2-yl)-1H-benzo[d]imidazol-1-yl)(naphthalen-1-yl)methanone] |  | ~2.12 µM and 2.12 µM | 8.65 ± 3.11 µM | > 55% | > 10 µM | > 10 µM | 47% |  |  |  | 66% |  |  | does not show any toxicity |  | 0.089 µM |

Reference: article PMC12564498, “Benzo[d]imidazole–Naphthalen-Arylmethanone Regioisomers as CB1 Ligands: Evaluation of Agonism via an Indirect Cytotoxicity-Based Approach” (International Journal of Molecular Sciences, 2025)
